From PubChem BioAssay (NCI)
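Cells were grown in 96-well plates and exposed to each compound for 48 hours at five concentrations; endpoints were interpolated linearly between bracketing concentrations, or set to the highest concentration if not reached. At the GI50, growth is halved. TGI: concentration producing complete growth inhibition.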 Where a SMILES comes first, the peptide text is derived from it. [ ]: non-standard residue; d: D form. The star is where a group is joined. ξ: configuration not given here. dIva = CC[C@@](C)(N)C(=O)O; Aib = CC(C)(N)C(=O)O; ξP = O=C(O)C1CCCN1; βAla = NCCC(=O)O; X5 = OCN*

Key:
Test in all cases: NCI anticancer screen, dose series, 48 h
SK-MEL-5 melanoma = test system: SK-MEL-5 melanoma
CCRF-CEM leukemia = test system: CCRF-CEM leukemia
SF-295 CNS = test system: SF-295 CNS
HCT-15 colon = test system: HCT-15 colon
SW-620 colon = test system: SW-620 colon
NCI/ADR-RES ovarian = test system: NCI/ADR-RES ovarian
EKVX NSCLC = test system: EKVX NSCLC
SK-MEL-28 melanoma = test system: SK-MEL-28 melanoma
DU-145 prostate = test system: DU-145 prostate
SK-OV-3 ovarian = test system: SK-OV-3 ovarian
HCT-116 colon = test system: HCT-116 colon
CAKI-1 renal = test system: CAKI-1 renal
PC-3 prostate = test system: PC-3 prostate
SNB-75 CNS = test system: SNB-75 CNS
KM12 colon = test system: KM12 colon
UO-31 renal = test system: UO-31 renal
SR leukemia = test system: SR leukemia
SF-539 CNS = test system: SF-539 CNS
BT-549 breast = test system: BT-549 breast
LOX IMVI melanoma = test system: LOX IMVI melanoma
NCI-H226 lung = test system: NCI-H226 lung
SN12C renal = test system: SN12C renal
U251 CNS = test system: U251 CNS
786-0 renal = test system: 786-0 renal
COLO 205 colon = test system: COLO 205 colon
HOP-62 NSCLC = test system: HOP-62 NSCLC
NCI-H23 lung = test system: NCI-H23 lung
K-562 leukemia = test system: K-562 leukemia
NCI-H460 lung = test system: NCI-H460 lung
TK-10 renal = test system: TK-10 renal
OVCAR-8 ovarian = test system: OVCAR-8 ovarian
NCI-H522 lung = test system: NCI-H522 lung
OVCAR-5 ovarian = test system: OVCAR-5 ovarian
ACHN renal = test system: ACHN renal
HL-60(TB) leukemia = test system: HL-60(TB) leukemia
HS 578T breast = test system: HS 578T breast
RXF 393 renal = test system: RXF 393 renal
MCF7 breast = test system: MCF7 breast
HCC-2998 colon = test system: HCC-2998 colon
SK-MEL-2 melanoma = test system: SK-MEL-2 melanoma
UACC-257 melanoma = test system: UACC-257 melanoma
T-47D breast = test system: T-47D breast
OVCAR-4 ovarian = test system: OVCAR-4 ovarian
SF-268 CNS = test system: SF-268 CNS
UACC-62 melanoma = test system: UACC-62 melanoma
SNB-19 CNS = test system: SNB-19 CNS
MOLT-4 leukemia = test system: MOLT-4 leukemia
A498 renal = test system: A498 renal
OVCAR-3 ovarian = test system: OVCAR-3 ovarian
M14 melanoma = test system: M14 melanoma
A549 NSCLC = test system: A549 NSCLC
MDA-MB-435 = test system: MDA-MB-435
HT29 colon = test system: HT29 colon
MALME-3M melanoma = test system: MALME-3M melanoma

**Q.** Which GI50 (SK-MEL-5 melanoma) does the source give for `CC[C@@](C)(NC(=O)[C@H](C)NC(=O)CCNC(=O)C(C)(C)NC(=O)[C@H](C)NC(=O)[C@@H]1CCCN1C(=O)[C@@](C)(CC)NC(=O)[C@H](Cc1ccccc1)NC(=O)C1CCCN1C(=O)C(C)(C)NC(=O)C1CCCN1C(=O)C(C)(C)NC(C)=O)C(=O)NCCC(=O)N[C@@H](CC(C)C)C(=O)NC(C)(C)C(=O)NCCC(=O)N[C@@H](CC(C)C)C(=O)NC(C)(C)C(=O)NC(C)(C)C(=O)N[C@@H](CC(C)C)C(=O)NCCC(=O)NCO` (stereo partly drawn) (Ac-[Aib][ξP][Aib][ξP]F[dIva]PA[Aib][βAla]A[dIva][βAla]L[Aib][βAla]L[Aib][Aib]L[βAla]-X5) here?
**A.** 99.1 nM

**Q.** And the TGI (SK-MEL-5 melanoma)?
**A.** 302 nM

**Q.** And the GI50 (CCRF-CEM leukemia)?
**A.** 224 nM

**Q.** And the TGI (CCRF-CEM leukemia)?
**A.** 577 nM

**Q.** And the GI50 (SF-295 CNS)?
**A.** 53.9 nM

**Q.** And the TGI (SF-295 CNS)?
**A.** 213 nM

**Q.** And the GI50 (HCT-15 colon)?
**A.** 229 nM

**Q.** What about the TGI (HCT-15 colon) of the same compound?
**A.** 446 nM

**Q.** And the GI50 (SW-620 colon)?
**A.** 149 nM

**Q.** And the TGI (SW-620 colon)?
**A.** 403 nM

**Q.** What about the GI50 (NCI/ADR-RES ovarian) of the same compound?
**A.** 238 nM

**Q.** And the TGI (NCI/ADR-RES ovarian)?
**A.** 488 nM

**Q.** And the GI50 (EKVX NSCLC)?
**A.** 66.1 nM

**Q.** And the TGI (EKVX NSCLC)?
**A.** 275 nM

**Q.** And the GI50 (SK-MEL-28 melanoma)?
**A.** 187 nM

**Q.** What about the TGI (SK-MEL-28 melanoma) of the same compound?
**A.** 431 nM

**Q.** What about the GI50 (DU-145 prostate) of the same compound?
**A.** 125 nM

**Q.** What about the TGI (DU-145 prostate) of the same compound?
**A.** 338 nM

**Q.** And the GI50 (SK-OV-3 ovarian)?
**A.** 72.5 nM

**Q.** What about the TGI (SK-OV-3 ovarian) of the same compound?
**A.** 266 nM

**Q.** And the GI50 (HCT-116 colon)?
**A.** 218 nM

**Q.** What about the TGI (HCT-116 colon) of the same compound?
**A.** 431 nM

**Q.** And the GI50 (CAKI-1 renal)?
**A.** 231 nM

**Q.** What about the TGI (CAKI-1 renal) of the same compound?
**A.** 448 nM

**Q.** What about the GI50 (PC-3 prostate) of the same compound?
**A.** 76.5 nM

**Q.** And the TGI (PC-3 prostate)?
**A.** 264 nM

**Q.** And the GI50 (SNB-75 CNS)?
**A.** 60.8 nM

**Q.** What about the TGI (SNB-75 CNS) of the same compound?
**A.** 307 nM

**Q.** What about the GI50 (KM12 colon) of the same compound?
**A.** 168 nM

**Q.** What about the TGI (KM12 colon) of the same compound?
**A.** 368 nM

**Q.** What about the GI50 (UO-31 renal) of the same compound?
**A.** 179 nM

**Q.** And the TGI (UO-31 renal)?
**A.** 391 nM

**Q.** And the GI50 (SR leukemia)?
**A.** 272 nM

**Q.** What about the TGI (SR leukemia) of the same compound?
**A.** 646 nM

**Q.** And the GI50 (SF-539 CNS)?
**A.** 131 nM

**Q.** What about the TGI (SF-539 CNS) of the same compound?
**A.** 354 nM

**Q.** And the GI50 (BT-549 breast)?
**A.** 69.9 nM

**Q.** And the TGI (BT-549 breast)?
**A.** 266 nM

**Q.** And the GI50 (LOX IMVI melanoma)?
**A.** 208 nM

**Q.** What about the TGI (LOX IMVI melanoma) of the same compound?
**A.** 428 nM

**Q.** And the GI50 (NCI-H226 lung)?
**A.** 101 nM

**Q.** What about the TGI (NCI-H226 lung) of the same compound?
**A.** 342 nM

**Q.** And the GI50 (SN12C renal)?
**A.** 119 nM

**Q.** What about the TGI (SN12C renal) of the same compound?
**A.** 373 nM

**Q.** What about the GI50 (U251 CNS) of the same compound?
**A.** 81.4 nM

**Q.** What about the TGI (U251 CNS) of the same compound?
**A.** 268 nM

**Q.** What about the GI50 (786-0 renal) of the same compound?
**A.** 203 nM

**Q.** What about the TGI (786-0 renal) of the same compound?
**A.** 414 nM

**Q.** And the GI50 (COLO 205 colon)?
**A.** 68.1 nM

**Q.** What about the TGI (COLO 205 colon) of the same compound?
**A.** 248 nM

**Q.** What about the GI50 (HOP-62 NSCLC) of the same compound?
**A.** 180 nM

**Q.** What about the TGI (HOP-62 NSCLC) of the same compound?
**A.** 383 nM

**Q.** And the GI50 (NCI-H23 lung)?
**A.** 88 nM

**Q.** And the TGI (NCI-H23 lung)?
**A.** 320 nM

**Q.** What about the GI50 (K-562 leukemia) of the same compound?
**A.** 79.1 nM

**Q.** And the TGI (K-562 leukemia)?
**A.** 332 nM

**Q.** What about the GI50 (NCI-H460 lung) of the same compound?
**A.** 144 nM

**Q.** And the TGI (NCI-H460 lung)?
**A.** 381 nM

**Q.** And the GI50 (TK-10 renal)?
**A.** 153 nM

**Q.** And the TGI (TK-10 renal)?
**A.** 353 nM

**Q.** And the GI50 (OVCAR-8 ovarian)?
**A.** 119 nM

**Q.** What about the TGI (OVCAR-8 ovarian) of the same compound?
**A.** 359 nM

**Q.** And the GI50 (NCI-H522 lung)?
**A.** 86.8 nM

**Q.** What about the TGI (NCI-H522 lung) of the same compound?
**A.** 304 nM

**Q.** What about the GI50 (OVCAR-5 ovarian) of the same compound?
**A.** 197 nM

**Q.** What about the TGI (OVCAR-5 ovarian) of the same compound?
**A.** 422 nM

**Q.** And the GI50 (ACHN renal)?
**A.** 199 nM

**Q.** And the TGI (ACHN renal)?
**A.** 428 nM

**Q.** And the GI50 (HL-60(TB) leukemia)?
**A.** 318 nM

**Q.** What about the TGI (HL-60(TB) leukemia) of the same compound?
**A.** 650 nM

**Q.** And the GI50 (HS 578T breast)?
**A.** 248 nM

**Q.** And the TGI (HS 578T breast)?
**A.** 642 nM

**Q.** And the GI50 (RXF 393 renal)?
**A.** 221 nM

**Q.** And the TGI (RXF 393 renal)?
**A.** 436 nM

**Q.** And the GI50 (MCF7 breast)?
**A.** 65.1 nM

**Q.** And the TGI (MCF7 breast)?
**A.** 286 nM

**Q.** And the GI50 (HCC-2998 colon)?
**A.** 145 nM

**Q.** What about the TGI (HCC-2998 colon) of the same compound?
**A.** 351 nM

**Q.** What about the GI50 (SK-MEL-2 melanoma) of the same compound?
**A.** 202 nM

**Q.** And the TGI (SK-MEL-2 melanoma)?
**A.** 427 nM

**Q.** What about the GI50 (UACC-257 melanoma) of the same compound?
**A.** 57.9 nM

**Q.** And the TGI (UACC-257 melanoma)?
**A.** 210 nM

**Q.** And the GI50 (T-47D breast)?
**A.** 73.9 nM

**Q.** What about the TGI (T-47D breast) of the same compound?
**A.** 302 nM

**Q.** What about the GI50 (OVCAR-4 ovarian) of the same compound?
**A.** 132 nM

**Q.** What about the TGI (OVCAR-4 ovarian) of the same compound?
**A.** 346 nM

**Q.** And the GI50 (SF-268 CNS)?
**A.** 143 nM

**Q.** What about the TGI (SF-268 CNS) of the same compound?
**A.** 368 nM

**Q.** What about the GI50 (UACC-62 melanoma) of the same compound?
**A.** 258 nM

**Q.** And the TGI (UACC-62 melanoma)?
**A.** 503 nM

**Q.** What about the GI50 (SNB-19 CNS) of the same compound?
**A.** 95.2 nM

**Q.** What about the TGI (SNB-19 CNS) of the same compound?
**A.** 304 nM

**Q.** What about the GI50 (MOLT-4 leukemia) of the same compound?
**A.** 306 nM

**Q.** And the TGI (MOLT-4 leukemia)?
**A.** 645 nM

**Q.** And the GI50 (A498 renal)?
**A.** 190 nM

**Q.** And the TGI (A498 renal)?
**A.** 412 nM

**Q.** And the GI50 (OVCAR-3 ovarian)?
**A.** 144 nM

**Q.** And the TGI (OVCAR-3 ovarian)?
**A.** 353 nM

**Q.** What about the GI50 (M14 melanoma) of the same compound?
**A.** 188 nM

**Q.** What about the TGI (M14 melanoma) of the same compound?
**A.** 391 nM

**Q.** What about the GI50 (A549 NSCLC) of the same compound?
**A.** 133 nM

**Q.** And the TGI (A549 NSCLC)?
**A.** 351 nM

**Q.** What about the GI50 (MDA-MB-435) of the same compound?
**A.** 142 nM

**Q.** What about the TGI (MDA-MB-435) of the same compound?
**A.** 357 nM

**Q.** And the GI50 (HT29 colon)?
**A.** 197 nM

**Q.** What about the TGI (HT29 colon) of the same compound?
**A.** 414 nM

**Q.** What about the GI50 (MALME-3M melanoma) of the same compound?
**A.** 59.5 nM

**Q.** And the TGI (MALME-3M melanoma)?
**A.** 256 nM
